The source of these data is patent US20260007680A1, “Compounds and Their Use as PDE4 Activators” (Mironid Limited, priority 2022, published 2026).

One test concerns the target T1, PDE4D5 (Homo sapiens, UniProt Q08499).
T1 construct: Using Full-Length Human PDE4 Isoforms; Long Forms PDE4D5, PDE4C3, PDE4B1 and Short Form PDE4B2; made in house; cytosol fraction of cell lysate
In words: PDE assay, activation of PDE4D5 long form (Experiment 1). The format is biochemical. The following applies: for activation at 100 µM: 100 μM test compound, mean % increase in counts over basal activity. The procedure:
(§1) One suitable method of detecting whether or not a compound is capable of serving as an activator of a PDE4 long form is using a two-step radio-assay procedure described in Experiment 1. In summary, the method involves incubating a PDE4 long form with a test small molecule activator, together with [^3H]-labelled cAMP to assess alterations in the breakdown of cAMP to the 5′-adenosine monophosphate (5′-AMP) product. A sample of the reaction mixture from such an incubation is subsequently treated with snake venom 5′-nucleotidase to allow conversion of the nucleotide [^3H]-labelled 5′-AMP to the uncharged nucleoside [^3H]-labelled adenosine, which can be separated and quantified to assess PDE4 activity and the effect of the test compound (Thompson, W. J. and Appleman, M. M. Biochemistry 10: 311-316, 1971, with some modifications as described in: Marchmont, R. J. and Houslay, M. D. Biochem J. 187: 381-92, 1980).
(§2) Experiment 1: Measurement of Modulation of Enzyme Activity by PDE4 Long Form Activators of the Present Invention Using Full-Length Human PDE4 Isoforms; Long Forms PDE4D5, PDE4C3, PDE4B1 and Short Form PDE4B2 • (Marchmont, R. J. and Houslay, M. D. Biochem. J. 187: 381-92, 1980)
For transient transfection of exogenous PDE4 long isoforms, HEK 293 cells were transfected with pcDNA3.1 or pDEST^TM PDE4 expression vectors using Lipofectamine LTX/Plus reagent (Invitrogen) as outlined by the manufacturer.
(§3) Where stable cell lines were generated the clonal isolates were expanded to obtain cell lines that stably expressed the full-length human PDE4 long isoforms and the full length human PDE4B2 short isoform. These were called the HEK-PDE4D5, HEK-PDE4B1 and HEK-PDE4B2 cell lines, respectively.
HEK-PDE4D5 cells were seeded out in 100 mm plates and incubated at 37° C. in an atmosphere of 5% CO2, 95% air. Cell lysates were prepared using KHEM buffer [50 mM KCl, 10 mM EGTA, 50 mM HEPES (pH 7.2), 1.92 mM MgCl2].
To prepare the cell lysates, the 100 mm plates containing the cells were placed on ice and washed with ice-cold PBS (phosphate buffered saline, pH 7.4). KHEM buffer (500 μL) was added to the cells. Cells were then scraped off the plate and triturated using a needle (BD Microlance™ 0.8, 40 mm). The lysed cells were then centrifuged at 2000 rpm for 10 minutes to remove cell debris and the supernatant (cell lysate containing recombinant PDE4D5) was transferred to a fresh tube and kept on ice.
The cell lysate containing recombinant PDE4D5 was transferred into a centrifuge tube and placed into an ultracentrifuge (BECKMAN COULTER) and spun at high speed (100,000 g) for 30 minutes at 4° C. The cytosol fraction was then collected and its protein amount determined using a BCA protein assay.
PDE assays were performed in thin walled V-bottomed 96-well plates. The assays were performed at a final concentration of 10 mM Tris/5 mM MgCl2 plus PDE4D5 cell lysate cytosol fraction, containing over-expressed PDE4D5, with and without test compound. The lysate/compound mix were incubated together for 15 min at room temperature on an orbital shaker prior to addition of [^3H] cAMP (final concentration 1 μM [^3H] cAMP; Perkin Elmer) to a final volume of 50 μL per reaction. The reactions were then incubated for 10 minutes at 30° C., terminated by heating for 2 min at 95° C. and allowed to cool. Snake venom (12.5 μL of 1 mg/mL; Crotalus atrox, Sigma) was then added and the plates were agitated and incubated for a further 15 minutes at 30° C. Dowex ion exchange resin (Sigma, chloride form, 200-400 mesh; 200 μL; prepared as a 1:1 Dowex:water stock, thoroughly re-suspended and diluted 2:1 with ethanol) was then added to each well and the plates incubated for 15 min at room temperature on an orbital shaker ensuring sufficient agitation for resin suspension (550 RPM). The reaction mixture was then transferred to a 96 well filter plate (Millipore; 0.45 μm pore size) and filtered into a receiving 96-well plate to remove the dowex suspension. […]

A further test addresses T2, PDE4B2 (Homo sapiens, UniProt Q07343).
T2 construct: the full length human PDE4B2 short isoform; made in house; cytosol fraction of cell lysate, prepared as described for PDE4D5
In words: PDE assay, PDE4B2 short form (Experiment 1). The format is biochemical. The following applies: 100 μM test compound; mean % increase in counts over basal activity. The procedure:
as §1, §2, §3
PDE assays were performed in thin walled V-bottomed 96-well plates. The assays were performed at a final concentration of 10 mM Tris/5 mM MgCl2 plus PDE4D5 cell lysate cytosol fraction, containing over-expressed PDE4D5, with and without test compound. The lysate/compound mix were incubated together for 15 min at room temperature on an orbital shaker prior to addition of [^3H] cAMP (final concentration 1 μM [^3H] cAMP; Perkin Elmer) to a final volume of 50 μL per reaction. The reactions were then incubated for 10 minutes at 30° C., terminated by heating for 2 min at 95° C. and allowed to cool. Snake venom (12.5 μL of 1 mg/mL; Crotalus atrox, Sigma) was then added and the plates were agitated and incubated for a further 15 minutes at 30° C. Dowex ion exchange resin (Sigma, chloride form, 200-400 mesh; 200 μL; prepared as a 1:1 Dowex:water stock, thoroughly re-suspended and diluted 2:1 with ethanol) was then added to each well and the plates incubated for 15 min at room temperature on an orbital shaker ensuring sufficient agitation for resin suspension (550 RPM). The reaction mixture was then transferred to a 96 well filter plate (Millipore; 0.45 μm pore size) and filtered into a receiving 96-well plate to remove the dowex suspension. 30 μL of the filtered solution was then transferred to the wells of an Opti-plate (Perkin Elmer) 96 well assay plate and 120 μL of Microscint 40 scintillation fluid was added. The plate was then placed on an orbital shaker for 10 min at high speed (900 rpm) to mix the sample with scintillation fluid prior to quantitation using a plate based scintillation counter (Top-Count).
The % increase in counts in the presence of test compound at a particular concentration indicates the % increase in enzyme activity at that concentration.

T1 sequence (Q08499 1-745 isoform Q08499-6): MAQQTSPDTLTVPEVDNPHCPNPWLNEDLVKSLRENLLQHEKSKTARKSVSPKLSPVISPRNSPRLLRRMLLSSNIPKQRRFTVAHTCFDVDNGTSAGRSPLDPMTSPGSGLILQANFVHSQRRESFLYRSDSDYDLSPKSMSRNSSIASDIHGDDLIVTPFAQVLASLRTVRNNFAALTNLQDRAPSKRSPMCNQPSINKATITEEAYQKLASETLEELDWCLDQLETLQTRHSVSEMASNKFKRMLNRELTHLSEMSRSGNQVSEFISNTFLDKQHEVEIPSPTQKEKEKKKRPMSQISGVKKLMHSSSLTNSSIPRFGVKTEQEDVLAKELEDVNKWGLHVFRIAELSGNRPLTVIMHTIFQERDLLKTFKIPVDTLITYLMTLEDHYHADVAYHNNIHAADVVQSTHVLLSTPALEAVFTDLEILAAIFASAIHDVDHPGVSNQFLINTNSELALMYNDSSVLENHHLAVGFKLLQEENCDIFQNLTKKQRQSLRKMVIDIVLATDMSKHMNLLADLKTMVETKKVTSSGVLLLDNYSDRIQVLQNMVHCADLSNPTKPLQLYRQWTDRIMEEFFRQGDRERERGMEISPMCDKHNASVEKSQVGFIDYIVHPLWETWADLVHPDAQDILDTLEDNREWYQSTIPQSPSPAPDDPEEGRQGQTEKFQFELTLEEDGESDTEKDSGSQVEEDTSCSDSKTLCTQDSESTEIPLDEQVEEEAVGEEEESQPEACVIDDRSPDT
T2 sequence (Q07343 1-564 isoform Q07343-2): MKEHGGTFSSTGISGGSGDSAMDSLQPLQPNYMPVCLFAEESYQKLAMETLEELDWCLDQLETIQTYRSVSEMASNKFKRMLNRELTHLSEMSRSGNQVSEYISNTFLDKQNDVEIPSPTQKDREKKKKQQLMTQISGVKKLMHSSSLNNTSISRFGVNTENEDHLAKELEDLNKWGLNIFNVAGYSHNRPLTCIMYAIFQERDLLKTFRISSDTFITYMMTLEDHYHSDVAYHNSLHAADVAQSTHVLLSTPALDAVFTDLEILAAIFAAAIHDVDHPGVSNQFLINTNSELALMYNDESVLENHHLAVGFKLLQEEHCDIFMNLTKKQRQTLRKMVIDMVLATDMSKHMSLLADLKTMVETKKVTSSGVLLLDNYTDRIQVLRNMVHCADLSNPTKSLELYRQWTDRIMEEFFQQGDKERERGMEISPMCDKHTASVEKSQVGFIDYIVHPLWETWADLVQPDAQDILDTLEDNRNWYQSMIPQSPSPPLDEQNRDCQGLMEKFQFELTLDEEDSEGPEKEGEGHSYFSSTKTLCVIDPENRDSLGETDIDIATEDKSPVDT

Regarding `Cc1ccc(-c2nc3cc(C(=O)N[C@H]4CCOc5ccccc54)ccc3[nH]2)cn1` [Example 2, (S)—N-(chroman-4-yl)-2-(6-methylpyridin-3-yl)-1H-benzo[d]imidazole-5-carboxamide], the results for the activation at 100 µM on PDE4D5 and at PDE4B2 were 115% and -39%, respectively.

On to `Cc1cncc(-c2nc3cc(C(=O)N[C@H]4CCOc5ccccc54)ccc3[nH]2)c1` [Example 4, (S)—N-(chroman-4-yl)-2-(5-methylpyridin-3-yl)-1H-benzo[d]imidazole-5-carboxamide], for which the activation at 100 µM was 140% at PDE4D5 and -6% at PDE4B2. For the same compound, the “activation of PDE4D5 (FIG. 1)” value at PDE4D5 (concentration-response) was “concentration-dependent activation”.

`Cc1cncc(-c2nc3ccc(C(=O)N[C@H]4CCOc5ccccc54)cc3n2C)c1` [Example 28, (S)—N-(chroman-4-yl)-1-methyl-2-(5-methylpyridin-3-yl)-1H-benzo[d]imidazole-6-carboxamide]: the results for the activation at 100 µM at PDE4D5 and on PDE4B2 were 45% and 5%, respectively.

On to `Cc1ccncc1-c1nc2cc(C(=O)N[C@H]3CCOc4ccccc43)ccn2n1` [Example 53, (S)—N-(chroman-4-yl)-2-(4-methylpyridin-3-yl)-[1,2,4]triazolo[1,5-a]pyridine-7-carboxamide], for which the activation at 100 µM is 33% at PDE4D5 and -8% at PDE4B2.
